Data: patent US20120077737A1, “HEPATITIS C INHIBITOR COMPOUNDS” (priority 2009, published 2012)

Legend:
[1] = tested on: HCV genotype 1a subgenomic replicon with NS3 resistance mutation D168V; assay: HCV replicon RNA replication assay, D168V 1a; type: cell-based, HCV genotype 1a (strain H77), Huh-7 cells; settings: Hepatitis C virus, Huh-7, 72 h, read-out: D168V 1a Ec50 (nM)
[2] = tested on: HCVPV1b subgenomic replicon (wild type 1b); assay: HCV replicon RNA replication assay, wild type 1b; type: cell-based, HCV genotype 1b (Con-1), Huh-7 cells; settings: Hepatitis C virus; Table 1; luciferase replicon, Huh-7, 72 h; read-out: WT 1b Ec50
[3] = tested on: HCV genotype 1b subgenomic replicon with NS3 resistance mutation D168V; assay: HCV replicon RNA replication assay, D168V 1b; type: cell-based, HCV genotype 1b (Con-1), Huh-7 cells; settings: Hepatitis C virus, Huh-7, 72 h, read-out: D168V 1b Ec50 (nM)
[4] = tested on: HCV genotype 1a subgenomic replicon with NS3 resistance mutation R155K; assay: HCV replicon RNA replication assay, R155K 1a; type: cell-based, HCV genotype 1a (strain H77), Huh-7 cells; settings: Hepatitis C virus, Huh-7, 72 h, read-out: R155K 1a Ec50 (nM)
[5] = tested on: HCVPV1a subgenomic replicon (wild type 1a); assay: HCV replicon RNA replication assay, wild type 1a; type: cell-based, HCV genotype 1a (strain H77), Huh-7 cells; settings: Hepatitis C virus; Table 1; luciferase replicon, Huh-7, 72 h; read-out: WT 1a Ec50

Question: Which results are given for `CC(C)Oc1cc(O[C@@H]2C[C@H]3C(=O)N[C@]4(C(=O)NS(=O)(=O)C5(C)CC5)C[C@H]4/C=C\CCCCC[C@H](NC(=O)c4ccn(C)n4)C(=O)N3C2)c2ccc(Cl)c(Cl)c2n1` [Compound 1025, (2R,6S,12Z,13aS,14aR,16aS)-2-{[7,8-dichloro-2-(propan-2-yloxy)quinolin-4-yl]oxy}-N-[(1-methylcyclopropyl)sulfonyl]-6-{[(1-methyl-1H-pyrazol-3-yl)carbonyl]amino}-5,16-dioxo-1,2,3,6,7,8,9,10,11,13a,14,15,16,16a-tetradecahydrocyclopropa[e]pyrrolo[1,2-a][1,4]diazacyclopentadecine-14a(5H)-carboxamide]?
Answer: EC50 [1]: 3.8 nM; EC50 [2]: 0.17 nM; EC50 [3]: 0.11 nM; EC50 [4]: 9.3 nM; EC50 [5]: 0.22 nM

Question: What does the source list for `Cc1c(O)ccc2c(O[C@@H]3C[C@H]4C(=O)N[C@]5(C(=O)NS(=O)(=O)C6(C)CC6)C[C@H]5/C=C\CCCCC[C@H](NC(=O)c5ccn(C)n5)C(=O)N4C3)cc(OC(C)C)nc12` [Compound 1015, (2R,6S,12Z,13aS,14aR,16aS)-2-{[7-hydroxy-8-methyl-2-(propan-2-yloxy)quinolin-4-yl]oxy}-N-[(1-methylcyclopropyl)sulfonyl]-6-{[(1-methyl-1H-pyrazol-3-yl)carbonyl]amino}-5,16-dioxo-1,2,3,6,7,8,9,10,11,13a,14,15,16,16a-tetradecahydrocyclopropa[e]pyrrolo[1,2-a][1,4]diazacyclopentadecine-14a(5H)-carboxamide]?
Answer: EC50 [1]: 6.9 nM; EC50 [2]: 1.3 nM; EC50 [3]: 0.96 nM; EC50 [4]: 0.95 nM; EC50 [5]: 0.96 nM

Question: What does the source list for `COc1c(F)ccc2c(O[C@@H]3C[C@H]4C(=O)N[C@]5(C(=O)NS(=O)(=O)C6(C)CC6)C[C@H]5/C=C\CCCCC[C@H](NC(=O)c5ccn(CC(F)F)n5)C(=O)N4C3)cc(OC(C)C)nc12` [Compound 1022, (2R,6S,12Z,13aS,14aR,16aS)-6-({[1-(2,2-difluoroethyl)-1H-pyrazol-3-yl]carbonyl}amino)-2-{[7-fluoro-8-methoxy-2-(propan-2-yloxy)quinolin-4-yl]oxy}-N-[(1-methylcyclopropyl)sulfonyl]-5,16-dioxo-1,2,3,6,7,8,9,10,11,13a,14,15,16,16a-tetradecahydrocyclopropa[e]pyrrolo[1,2-a][1,4]diazacyclopentadecine-14a(5H)-carboxamide]?
Answer: EC50 [1]: 0.97 nM; EC50 [2]: 0.41 nM; EC50 [3]: 0.62 nM; EC50 [4]: 1.3 nM; EC50 [5]: 0.42 nM

Question: For `COCCn1ccc(C(=O)N[C@H]2CCCCC/C=C\[C@@H]3C[C@@]3(C(=O)NS(=O)(=O)C3(C)CC3)NC(=O)[C@@H]3C[C@@H](Oc4cc(OC(C)C)nc5c(C)c(OC)ccc45)CN3C2=O)n1` [Compound 1002, (2R,6S,12Z,13aS,14aR,16aS)-6-({[1-(2-methoxyethyl)-1H-pyrazol-3-yl]carbonyl}amino)-2-{[7-methoxy-8-methyl-2-(propan-2-yloxy)quinolin-4-yl]oxy}-N-[(1-methylcyclopropyl)sulfonyl]-5,16-dioxo-1,2,3,6,7,8,9,10,11,13a,14,15,16,16a-tetradecahydrocyclopropa[e]pyrrolo[1,2-a][1,4]diazacyclopentadecine-14a(5H)-carboxamide], which EC50 [1] is on record?
Answer: 2.8 nM

Question: What about the EC50 [2] of the same molecule?
Answer: 0.32 nM

Question: And the EC50 [3]?
Answer: 0.12 nM

Question: What about the EC50 [4] of the same molecule?
Answer: 1.5 nM

Question: What about the EC50 [5] of the same molecule?
Answer: 0.38 nM

Question: For `COc1ccc2c(O[C@@H]3C[C@H]4C(=O)N[C@]5(C(=O)NS(=O)(=O)C6(C)CC6)C[C@H]5/C=C\CCCCC[C@H](NC(=O)c5ccn(CCF)n5)C(=O)N4C3)cc(OC(C)C)nc2c1C` [Compound 1004, (2R,6S,12Z,13aS,14aR,16aS)-6-({[1-(2-fluoroethyl)-1H-pyrazol-3-yl]carbonyl}amino)-2-{[7-methoxy-8-methyl-2-(propan-2-yloxy)quinolin-4-yl]oxy}-N-[(1-methylcyclopropyl)sulfonyl]-5,16-dioxo-1,2,3,6,7,8,9,10,11,13a,14,15,16,16a-tetradecahydrocyclopropa[e]pyrrolo[1,2-a][1,4]diazacyclopentadecine-14a(5H)-carboxamide], which EC50 [1] is on record?
Answer: 1.8 nM

Question: And the EC50 [2]?
Answer: 0.27 nM

Question: And the EC50 [3]?
Answer: 0.15 nM

Question: What about the EC50 [4] of the same molecule?
Answer: 1.3 nM

Question: What about the EC50 [5] of the same molecule?
Answer: 0.24 nM

Question: With `COc1ccc2c(O[C@@H]3C[C@H]4C(=O)N[C@]5(C(=O)NS(=O)(=O)C6(C)CC6)C[C@H]5/C=C\CCCCC[C@H](NC(=O)c5ccn(CC(F)F)n5)C(=O)N4C3)cc(OC(C)C)nc2c1C` [Compound 1001, (2R,6S,12Z,13aS,14aR,16aS)-6-({[1-(2,2-difluoroethyl)-1H-pyrazol-3-yl]carbonyl}amino)-2-{[7-methoxy-8-methyl-2-(propan-2-yloxy)quinolin-4-yl]oxy}-N-[(1-methylcyclopropyl)sulfonyl]-5,16-dioxo-1,2,3,6,7,8,9,10,11,13a,14,15,16,16a-tetradecahydrocyclopropa[e]pyrrolo[1,2-a][1,4]diazacyclopentadecine-14a(5H)-carboxamide] as the molecule, how does the EC50 [1] read?
Answer: 0.78 nM

Question: What about the EC50 [2] of the same molecule?
Answer: 0.17 nM

Question: What about the EC50 [3] of the same molecule?
Answer: 0.1 nM

Question: And the EC50 [4]?
Answer: 0.96 nM

Question: And the EC50 [5]?
Answer: 0.22 nM

Question: With `CNC(=O)Cn1ccc(C(=O)N[C@H]2CCCCC/C=C\[C@@H]3C[C@@]3(C(=O)NS(=O)(=O)C3CC3)NC(=O)[C@@H]3C[C@@H](Oc4cc(OC(C)C)nc5c(C)c(OC)ccc45)CN3C2=O)n1` [Compound 1018, (2R,6S,12Z,13aS,14aR,16aS)-N-(cyclopropylsulfonyl)-2-{[7-methoxy-8-methyl-2-(propan-2-yloxy)quinolin-4-yl]oxy}-6-[({1-[2-(methylamino)-2-oxoethyl]-1H-pyrazol-3-yl}carbonyl)amino]-5,16-dioxo-1,2,3,6,7,8,9,10,11,13a,14,15,16,16a-tetradecahydrocyclopropa[e]pyrrolo[1,2-a][1,4]diazacyclopentadecine-14a(5H)-carboxamide] as the molecule, how does the EC50 [1] read?
Answer: 9.8 nM

Question: What about the EC50 [2] of the same molecule?
Answer: 3.3 nM

Question: And the EC50 [3]?
Answer: 2.4 nM

Question: What about the EC50 [4] of the same molecule?
Answer: 4.2 nM

Question: And the EC50 [5]?
Answer: 2.7 nM

Question: How did the EC50 [1] turn out when `COc1c(F)ccc2c(O[C@@H]3C[C@H]4C(=O)N[C@]5(C(=O)NS(=O)(=O)C6(C)CC6)C[C@H]5/C=C\CCCCC[C@H](NC(=O)c5ccn(C)n5)C(=O)N4C3)cc(OC(C)C)nc12` [Compound 1013, (2R,6S,12Z,13aS,14aR,16aS)-2-{[7-fluoro-8-methoxy-2-(propan-2-yloxy)quinolin-4-yl]oxy}-N-[(1-methylcyclopropyl)sulfonyl]-6-{[(1-methyl-1H-pyrazol-3-yl)carbonyl]amino}-5,16-dioxo-1,2,3,6,7,8,9,10,11,13a,14,15,16,16a-tetradecahydrocyclopropa[e]pyrrolo[1,2-a][1,4]diazacyclopentadecine-14a(5H)-carboxamide] was run?
Answer: 0.75 nM

Question: And the EC50 [2]?
Answer: 0.37 nM

Question: What about the EC50 [3] of the same molecule?
Answer: 0.45 nM

Question: What about the EC50 [4] of the same molecule?
Answer: 1.6 nM

Question: What about the EC50 [5] of the same molecule?
Answer: 0.5 nM

Question: What does the source list for `COc1ccc2c(O[C@@H]3C[C@H]4C(=O)N[C@]5(C(=O)NS(=O)(=O)C6CC6)C[C@H]5/C=C\CCCCC[C@H](NC(=O)c5ccc(C(C)(C)O)s5)C(=O)N4C3)cc(OC(C)C)nc2c1C` [Compound 1014, (2R,6S,12Z,13aS,14aR,16aS)-N-(cyclopropylsulfonyl)-6-({[5-(2-hydroxypropan-2-yl)thiophen-2-yl]carbonyl}amino)-2-{[7-methoxy-8-methyl-2-(propan-2-yloxy)quinolin-4-yl]oxy}-5,16-dioxo-1,2,3,6,7,8,9,10,11,13a,14,15,16,16a-tetradecahydrocyclopropa[e]pyrrolo[1,2-a][1,4]diazacyclopentadecine-14a(5H)-carboxamide]?
Answer: EC50 [1]: 6.3 nM; EC50 [2]: 1.2 nM; EC50 [3]: 0.82 nM; EC50 [4]: 8.5 nM; EC50 [5]: 1.2 nM

Question: What does the source list for `COc1c(F)ccc2c(O[C@@H]3C[C@H]4C(=O)N[C@]5(C(=O)NS(=O)(=O)C6CC6)C[C@H]5/C=C\CCCCC[C@H](NC(=O)c5ccn(C)n5)C(=O)N4C3)cc(OC(C)C)nc12` [Compound 1016, (2R,6S,12Z,13aS,14aR,16aS)-N-(cyclopropylsulfonyl)-2-{[7-fluoro-8-methoxy-2-(propan-2-yloxy)quinolin-4-yl]oxy}-6-{[(1-methyl-1H-pyrazol-3-yl)carbonyl]amino}-5,16-dioxo-1,2,3,6,7,8,9,10,11,13a,14,15,16,16a-tetradecahydrocyclopropa[e]pyrrolo[1,2-a][1,4]diazacyclopentadecine-14a(5H)-carboxamide]?
Answer: EC50 [1]: 3.9 nM; EC50 [2]: 1.1 nM; EC50 [3]: 1 nM; EC50 [4]: 7.9 nM; EC50 [5]: 1.5 nM

Question: For `Cc1ccc2c(O[C@@H]3C[C@H]4C(=O)N[C@]5(C(=O)NS(=O)(=O)C6(C)CC6)C[C@H]5/C=C\CCCCC[C@H](NC(=O)c5ccn(C)n5)C(=O)N4C3)cc(OC(C)C)nc2c1Br` [Compound 1024, (2R,6S,12Z,13aS,14aR,16aS)-2-{[8-bromo-7-methyl-2-(propan-2-yloxy)quinolin-4-yl]oxy}-N-[(1-methylcyclopropyl)sulfonyl]-6-{[(1-methyl-1H-pyrazol-3-yl)carbonyl]amino}-5,16-dioxo-1,2,3,6,7,8,9,10,11,13a,14,15,16,16a-tetradecahydrocyclopropa[e]pyrrolo[1,2-a][1,4]diazacyclopentadecine-14a(5H)-carboxamide], which EC50 [1] is on record?
Answer: 1.9 nM

Question: And the EC50 [2]?
Answer: 0.13 nM

Question: What about the EC50 [3] of the same molecule?
Answer: 0.09 nM

Question: What about the EC50 [4] of the same molecule?
Answer: 9.3 nM

Question: And the EC50 [5]?
Answer: 0.1 nM
